These results are taken from patent US20190105260A1, “COMPOSITIONS AND METHODS TO PROMOTE WOUND HEALING” (The Regents of the University of California, priority 2016, published 2019).

The test system of data set [1] is bone marrow-derived macrophages (BMDMs), M2 polarization. Kind of data set: In vitro macrophage polarization (RT-PCR, flow cytometry). In kind it is cell-based, mouse. The method, then: Bone marrow described macrophages from wild-type C57/B6J mice were harvested and cultured under polarizing conditions towards M0 (no polarization; normal culture medium), M1 (using LPS and IFNγ) or M2 (using IL-4 and IL-13). […] M2 activation status was assessed using RT-PCR (normalized to HSP90) for CD206, Ym-1 and Arg-1. M1 activation status was assessed using TNFα (A, B). C: At day 7 of macrophage maturation, adherent bone marrow derived monocytes in culture were identified with macrophage markers (CD11b and F4/80) using flow cytometry. After 24 hours, CD206 expression was identified in treated group (C). Results were then quantified and reported (D). Data presented as average±SEM. ** p<0.01.
Wild type C57BL/6 male and female mice were used. Bone marrow-derived (BMD) cells were isolated from mouse femurs and tibias. ACK solution (Thermo Fisher catalog 50-983-220) was used for 5 minutes at 37° C. to lyse red blood cells. BMD macrophages (BMDMs) were matured with (20 ng/mL) M-CSF (R&D) for 7 days. On day 7, BMDM phenotype was confirmed with flow cytometry by CD11b and F4/80 markers (Biolegend). Following maturation, BMDMs were either polarized towards M1 lineage with 10 ng/ml LPS (Sigma Aldrich) and 100 ng/ml IFN-g (R&D) or M2 lineage with 20 ng/ml IL-4 (PeproTech) and IL-13 (R&D) in cRPMI (1×RPMI (Cellgro), 10% FBS, 1× sodium pyruvate (GIBCO), 1× penicillin/streptomycin (GIBCO) at 37° C. for 24 hours. Non-polarized BMDMs and M1-polarized BMDMs were used as experimental controls for polarization procedure. M2-polarized BMDMs were co-treated with either PBS or FLX and/or 100 nM NAN-190 or 1 μM Ketanserin. Cells were either collected after 4 hours by scraping and stored in buffer RLT (Qiagen) at −80° C. or were read with flow cytometry after 24 hours and data were appropriately compensated and analyzed by FlowJo.
RT-PCR was performed using PowerUp SYBR Green Master Mix (Thermo/Applied Biosystems). Data was analyzed using the ΔΔCt method and normalized using geometric mean of the housekeeping genes (GAPDH, Hsp90, 18S rRNA). Fold change is shown relative to control groups.
Background: A flow cytometer gives signals particle by particle.

In data set [2] the test system is CFSE-labeled CD4+CD25- effector T cells stimulated with CD11c+ dendritic cells. Put plainly: Mixed lymphocyte reaction. The format is cell-based, mouse. The conditions noted are these: 1 μM fluoxetine, 10 μM serotonin, 3,000 AMSC or 1,500 BMSC added to co-cultures. The method, then: Panel A: In a mixed lymphocyte reaction, 250,000 Carboxyfluorescein succinimidyl ester (CFSE)-labeled CD4+CD25-effector T cells were cultured with 100,000 CD11c+ dendritic cells as antigen. […] Proliferation was measured based on CFSE dilution. […] P values were derived using a 2-tailed t-test.
Mixed lymphocyte reactions were performed as described. Briefly, allogenic effector B6 CF SE-labeled T cells were incubated in a 96-well plate (250,000/well) with CD11c+ Bal/b APC (100,000/well) that were purified from bulk splenocytes on anti-CD11c-coupled Milteny microbeads. […] Proliferation was measured based on CFSE dilution.

The subject of data set [3] is BMSC. Put plainly: BMSC migration assay. The conditions noted are these: 10 uM 5HT vs untreated BMSC; BMSC pooled from 3 donors. In kind it is cell-based.
For data set [4], the system named is BMSC. Put plainly: BMSC proliferation in vitro. The conditions noted are these: 10 uM 5HT vs untreated BMSC; BMSC pooled from 3 donors. In kind it is cell-based.
Data set [5] has as its system HaCaT human keratinocyte cell line. Kind of data set: Single cell migration assay. The conditions noted are these: HaCaT cells. In kind it is cell-based. From the text:
(§1) FIGS. 2A-C illustrate that serotonin (5-HT) increases keratinocyte migratory speed and re-epithelialization in a scratch wound ex vivo model, likely through the ERK-STAT3-NFkB pathway.

The subject of data set [6] is phosphorylated ERK in keratinocytes. Kind of data set: Multiplex assay, phosphorylated ERK. In kind it is cell-based, human. The conditions noted are these: 10 μM 5-HT for 6 hours, NHKs. The method, then: as §1
(§2) NHKs from 3 different donors were cultured in 100 mm dishes until 80% confluent and treated with 10 μM 5-HT for 6 hours. Protein lysates were collected and quantified with Bradford assays before proceeding according to manufacturer's protocol (Millipore Multiplex Assay (MILLIPLEX® MAP 48-680MAG). Results were normalized to total protein levels quantified separately by Bradford protein assays.

For data set [7], the system named is phosphorylated STAT3 in keratinocytes. Put plainly: Multiplex assay, phosphorylated STAT3. In kind it is cell-based, human. The conditions noted are these: 10 μM 5-HT for 6 hours, NHKs. On the procedure:
as §1, §2

A further data set deals with NF-kB in keratinocytes. Put plainly: Multiplex assay, NF-kB. In kind it is cell-based, human. The conditions noted are these: 10 μM 5-HT for 6 hours, NHKs. On the procedure: as §1, §2
Data set [8] can be described thus: Serotonin degradation in culture (ELISA). The conditions noted are these: after 24 hours in culture, in both the presence and absence of BMSC. In kind it is physicochemical. An excerpt: Serotonin is rapidly degraded when exposed to in vitro in culture conditions.
Background: In an ELISA, binding on a coated surface is turned into a signal by an enzyme label.

Setting [9] is: 100 nM fluoxetine, after 4 hours of polarization.

As for `CNCCC(Oc1ccc(C(F)(F)F)cc1)c1ccccc1` (stereo not shown) [fluoxetine], in data set [1] (setting [9]), the “Arg-1 transcripts (RT-PCR)” value was “significant increased”, the “CD206 transcripts (RT-PCR)” value is recorded as “significant increased” and the “Ym-1 transcripts (RT-PCR)” value is listed as “significant increased”. Besides, the “M2 polarization of naïve macrophages (CD206+ cells, flow cytometry)” value in data set [1] (after 24 hours of M2 polarization) is “enhanced”. Moreover, the “T cell proliferation (CFSE dilution)” value in data set [2] is given as “significantly inhibit”.

`NCCc1c[nH]c2ccc(O)cc12` [serotonin]: the BMSC migratory speed entry in the data set on BMSC [3] is reported as “significantly increased”. Moreover, in the data set with BMSC [4], the BMSC proliferation result is on record as “significantly increased”. The “keratinocyte migration (single cell migration)” value in data set [5] is reported as “increases”. Besides, the “phosphorylation of ERK” value in data set [6] is recorded as “significantly increased”. For the same compound, in [7], the “phosphorylation of STAT3” value is listed as “significantly increased”. Moreover, in the data set on NF-kB in keratinocytes, the NF-kB protein result is given as “increase”. Further, in data set [2], the “T cell proliferation (CFSE dilution)” value is on record as “significantly inhibit”. Besides, the “serotonin in culture lost” value in [8] is “Over 50%”.
